The values below come from publication PMC5654082 (Malaria Journal, 2017).

Where two headings read alike, the source gives them in different places. Marks after values point to notes of the source that are not given here.

Broadly, the Cmax is the peak of the concentration-time curve. For orientation: IC50 means the concentration needed to halve the response being measured. The term Ki denotes a measure of affinity in units of concentration, obtained from inhibition or displacement.

The nature of series [1]: Maximum plasma concentration from in vivo pharmacokinetic studies after therapeutic dosing. The following applies: human, the literature Cmax (ng/mL) of Table 2 expressed in µM. The text has this:
As Cmax the (geometric) mean or median maximum plasma concentrations obtained from previous in vivo pharmacokinetic studies after therapeutic dosing was used.

For series [2] the following is noted: (geometric) mean or median, cited from earlier work.
The conditions of series [3]: cited from earlier work.
In series [4] the test system is OCT1. Also noted: method as in PMID 16263091. The following applies: stably transfected HEK293 cells; read-out: IC50 of [3H]MPP+ uptake, OCT1; cited from earlier work.
The test system of series [5] is OCT2. More on the design: method as in PMID 16263091. The following applies: stably transfected HEK293 cells; read-out: IC50 of [3H]MPP+ uptake, OCT2; cited from earlier work.
The subject of series [6] is OCT2. Also noted: method as in PMID 21599003. The following applies: 20 µM; ASP as substrate; cited from earlier work.
Series [7] relates to OCT1. More on the design: method as in PMID 18788725. Conditions: 100 µM; ASP as substrate; cited from earlier work.
In another series the target is T1, human OCT1 (Homo sapiens, UniProt O15245).
T1 construct: host or cells: HEK293, baculovirus transduction (CMV promoter), transient
T1 sequence (O15245 1-554): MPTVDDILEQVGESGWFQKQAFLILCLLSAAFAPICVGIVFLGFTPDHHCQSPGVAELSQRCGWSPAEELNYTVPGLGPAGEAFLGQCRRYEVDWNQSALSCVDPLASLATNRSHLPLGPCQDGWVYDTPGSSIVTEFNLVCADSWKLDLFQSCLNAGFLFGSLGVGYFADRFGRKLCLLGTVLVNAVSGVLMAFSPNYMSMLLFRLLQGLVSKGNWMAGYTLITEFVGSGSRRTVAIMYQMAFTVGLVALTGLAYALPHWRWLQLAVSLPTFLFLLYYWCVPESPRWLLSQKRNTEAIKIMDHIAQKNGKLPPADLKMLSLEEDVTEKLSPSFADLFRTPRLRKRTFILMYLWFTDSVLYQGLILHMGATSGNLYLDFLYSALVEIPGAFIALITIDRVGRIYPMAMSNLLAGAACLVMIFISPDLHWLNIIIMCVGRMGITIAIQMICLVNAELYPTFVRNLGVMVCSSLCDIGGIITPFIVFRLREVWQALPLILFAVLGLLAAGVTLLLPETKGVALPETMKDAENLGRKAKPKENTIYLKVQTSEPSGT
The series can be described thus: Inhibition of OCT1-mediated ASP uptake in transduced HEK293 cells. The format is cell-based. Conditions: 50 µM anti-malarial, 10 µM ASP, 10 min, 37 °C; relative to solvent control fixed at 100%. On the procedure: (§1) HEK293 cells were modified to transiently express (a combination of) human OCT1, OCT2, MATE1, MATE2-K, or eYFP. Briefly, cDNA of the respective genes was cloned downstream of a CMV promoter into a baculovirus, of which passage three was used to transduce HEK293 cells. These cells were seeded in poly-D-lysine coated 24- or 96-wells plates and grown in a 37 °C incubator at 5% CO2. Growth was initiated at ~ 25% confluency using 375 or 125 μL cell and complete medium (DMEM + GlutaMAX™-I supplemented with 10% fetal bovine serum) suspension per well, respectively. After 24 h, cells were transduced with 30 µL virus (10 µL virus + 20 µL complete medium in case of 96-wells plates) or 2 × 15 µL virus for cells that required simultaneous expression of two transporters. Finally, 195 µL sodium butyrate (45 µL for 96-wells plates) was added to a final concentration of 2 mM to enhance protein expression.
AMO (10 mM), ASP (1 mM), CQ (10 mM), PQ (10 mM) and PG (10 mM) were dissolved in MilliQ water. ART (10 mM), ATO (10 mM), DHA (10 mM), LUM (10 mM), MQ (10 mM), NMQ (20 mM), PYR (10 mM), QN (10 mM) were dissolved in DMSO. All compound stocks were stored at − 20 °C. Inhibition of OCT1- or OCT2-mediated ASP uptake by anti-malarials was performed in poly-D-lysine coated 96-wells plates 2 or 3 days following HEK293 cell transduction. In short, cells were washed with 125 µL 37 °C HBSS containing 10 mM HEPES, pH 7.4. Then, a 50 µL mixture of ASP (10 µM) and anti-malarial compound (25, 50 or 100 µM) in HBSS buffer (pH 7.4) was added to each well and incubated for 10 min at 37 °C. ASP transport was stopped by washing with 125 µL ice-cold HBSS-HEPES buffer supplemented with 0.5% BSA. Following a second wash with 125 µL ice-cold HBSS-HEPES buffer, cells were lysed with 125 µL 1 M NaOH and ASP was excited at a wavelength of 485 nm and fluorescence was detected at an emission wavelength of 535 nm using the Victor X3 multimode plate reader.
For each compound, a range of seven concentrations was used to determine the concentration at which ASP uptake was inhibited half maximally (IC50). At least three independent experiments (4 for QN) were performed for each drug in triplicate as described above. Inhibition curves were plotted by nonlinear regression analyses of the data using GraphPad Prism version 5.03. […] To generate the final dose–response inhibition curve per anti-malarial, percentage of uptake was averaged for each drug concentration per experiment and the resulting mean ± SEM corresponding to three or four independent experiments were plotted.

In series [8] the target is T2, human OCT2 (Homo sapiens, UniProt O15244).
T2 construct: host or cells: HEK293, baculovirus transduction (CMV promoter), transient
T2 sequence (O15244 1-555): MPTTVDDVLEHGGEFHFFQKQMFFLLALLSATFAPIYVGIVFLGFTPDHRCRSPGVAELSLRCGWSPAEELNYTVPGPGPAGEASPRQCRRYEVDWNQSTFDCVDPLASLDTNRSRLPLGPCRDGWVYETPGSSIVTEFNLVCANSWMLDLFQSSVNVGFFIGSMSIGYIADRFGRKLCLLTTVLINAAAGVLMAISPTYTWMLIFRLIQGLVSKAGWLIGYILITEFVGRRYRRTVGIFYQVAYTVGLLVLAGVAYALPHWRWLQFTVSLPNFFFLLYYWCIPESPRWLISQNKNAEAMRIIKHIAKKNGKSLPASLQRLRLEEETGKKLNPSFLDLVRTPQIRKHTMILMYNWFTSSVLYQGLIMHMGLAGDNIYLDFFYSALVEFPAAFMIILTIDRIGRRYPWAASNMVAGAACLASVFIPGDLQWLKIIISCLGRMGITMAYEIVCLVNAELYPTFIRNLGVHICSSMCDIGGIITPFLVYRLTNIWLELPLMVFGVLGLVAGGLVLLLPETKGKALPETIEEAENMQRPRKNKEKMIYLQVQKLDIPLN
In words: Inhibition of OCT2-mediated ASP uptake in transduced HEK293 cells. Conditions: 10 µM ASP, 10 min, 37 °C. The format is cell-based. The protocol:
as §1, with “Growth was initiated at ~ 25% confluency using 375 or 125 μL cell and complete medium (DMEM + GlutaMAX™-I supplemented with 10% fetal bovine serum) suspension per well, respectively.” left out
AMO (10 mM), ASP (1 mM), CQ (10 mM), PQ (10 mM) and PG (10 mM) were dissolved in MilliQ water. ART (10 mM), ATO (10 mM), DHA (10 mM), LUM (10 mM), MQ (10 mM), NMQ (20 mM), PYR (10 mM), QN (10 mM) were dissolved in DMSO. All compound stocks were stored at − 20 °C. Inhibition of OCT1- or OCT2-mediated ASP uptake by anti-malarials was performed in poly-D-lysine coated 96-wells plates 2 or 3 days following HEK293 cell transduction. In short, cells were washed with 125 µL 37 °C HBSS containing 10 mM HEPES, pH 7.4. […] ASP transport was stopped by washing with 125 µL ice-cold HBSS-HEPES buffer supplemented with 0.5% BSA.
For each compound, a range of seven concentrations was used to determine the concentration at which ASP uptake was inhibited half maximally (IC50). At least three independent experiments (4 for QN) were performed for each drug in triplicate as described above. […] To generate the final dose–response inhibition curve per anti-malarial, percentage of uptake was averaged for each drug concentration per experiment and the resulting mean ± SEM corresponding to three or four independent experiments were plotted.

The subject of series [9] is OCT2. More on the design: method as in PMID 20053795. Conditions: 50 µM; HeLa cells, metformin as substrate; cited from earlier work.
For series [10], the target named is T2, human OCT2. Also noted: method as in PMID 21544077. The following applies: HEK293 cells stably expressing human OCT2; read-out: Ki for OCT2-mediated MET uptake; cited from earlier work.

Turning to `C=C[C@H]1C[N@@]2CC[C@H]1C[C@H]2[C@H](O)c1ccnc2ccc(OC)cc12` [Quinine, quinine], the Cmax in series [1] was 35 µM; in series [2] (adult patients with uncomplicated falciparum malaria) it was 11430^f [50] ng/mL. The Unbound fraction in series [3] (Thai patients with falciparum malaria) is 0.11^g [36]. The 50% inhibitory concentration (IC50) in the series with OCT1 [4] is 13 µM; in the series on OCT2 [5], 23 µM. Further, the “Inhibition of OCT2” value in the series on OCT2 [6] was 72%. Also, the “Inhibition of OCT1” value in the series on OCT1 [7] is reported as 60%.

In the case of `CCc1nc(N)nc(N)c1-c1ccc(Cl)cc1` [Pyrimethamine, pyrimethamine], on human OCT1, the “Relative ASP uptake (OCT1-mediated)” value was determined as 59 ± 6%. The IC50 on human OCT2 [8] (seven concentrations) was 1.6 µM. Also, the “Relative ASP uptake (OCT2-mediated)” value at human OCT2 [8] (50 µM anti-malarial, relative to solvent control fixed at 100%) worked out at 6 ± 2%. In addition, the results for the Cmax in series [1] and in [2] (patients with acute falciparum malaria) were 1.1 µM and 281^e [48] ng/mL, respectively. For the same compound, the Unbound fraction in [3] is 0.06 [49]. In addition, the “Reduction of OCT2 activity” value in the series on OCT2 [9] is recorded as 60%. Besides, the Ki at human OCT2 [10] is 10 µM.
